Structures can show the parent of a compound that is named as a salt.
Test system: ATGL-KO iPSCs
Assay: High throughput iPSC chemical screening, Oil Red O (ORO) lipid accumulation; on Z-score: test concentration or dose not given here
Assay type: cell-based, mouse
Conditions: not given

SMILES | Z-score
Cc1c(C)c2c(c(C)c1O)CC[C@@](C)(CCC[C@H](C)CCC[C@H](C)CCCC(C)C)O2 [Tocopherol (R,S)] | −1.721

Same assay, conditions: glycolytic switch compounds

SMILES | Rank in normalized ORO score from screen
CCC(=O)O[C@H]1CC[C@H]2[C@@H]3CCC4=CC(=O)CC[C@]4(C)[C@H]3CC[C@]12C [Testosterone propionate] | 857
CN(C)CCCN1c2ccccc2Sc2ccc(C(F)(F)F)cc21 [Triflupromazine hydrochloride] | 644

Same assay, conditions: normalized ORO level vs DMSO-treated cells; compound present during 7 days differentiation, 96-well; negative = decrease in lipid accumulation

SMILES | Z-score
CCC(=O)O[C@H]1CC[C@H]2[C@@H]3CCC4=CC(=O)CC[C@]4(C)[C@H]3CC[C@]12C [Testosterone propionate] | 0.7489
CCCCNc1ccc(C(=O)OCCN(C)C)cc1.Cl [TetracaOne hydrochloride] | −0.5979
CN(C)[C@@H]1C(O)=C(C(N)=O)C(=O)[C@@]2(O)C(O)=C3C(=O)c4c(O)cccc4[C@@](C)(O)[C@H]3C[C@@H]12 [Tetracycline hydrochloride] | −0.2579
O.O=C1C(O)=C(O)C(=O)C(O)=C1O [Tetrahydroxy-1,4-quinone monohydrate] | −1.5885
c1ccc2c(c1)CCCC2C1=NCCN1 (stereo not drawn) [Tetrahydrozoline hydrochloride] | −0.9102
c1ccc(C2CN3CCSC3=N2)cc1 (stereo not drawn) [Tetramisole hydrochloride] | 0.1333
COc1ccc2cc1Oc1ccc(cc1)C[C@H]1c3cc(c(OC)cc3CCN1C)Oc1c(OC)c(OC)cc3c1[C@H](C2)N(C)CC3 [Tetrandrine] | −1.1905
O=C1CCC(N2C(=O)c3ccccc3C2=O)C(=O)N1 (stereo not drawn) [Thalidomide] | −1.026
Cn1cnc2c1c(=O)[nH]c(=O)n2C [Theobromine] | 0.09359
Cn1c(=O)c2[nH]cnc2n(C)c1=O.O [Theophylline monohydrate] | 0.7001
Cc1ncc(C[n+]2csc(CCO)c2C)c(N)n1 [Thiamine hydrochloride] | 1.576
CS(=O)(=O)c1ccc([C@@H](O)[C@@H](CO)NC(=O)C(Cl)Cl)cc1 [Thiamphenicol] | 16.8903
COc1c(O[C@@H]2O[C@H](CO)[C@@H](O)[C@H](O)[C@H]2O)cc2c(c1OC)-c1ccc(SC)c(=O)cc1[C@@H](NC(C)=O)CC2 [Thiocolchicoside] | 11.5611
S=C(NC1CCCCC1)N1CCC(c2cnc[nH]2)CC1 [Thioperamide maleate] | −0.6114
CSc1ccc2c(c1)N(CCC1CCCCN1C)c1ccccc1S2 (stereo not drawn) [Thioridazine hydrochloride] | −1.1212
O=C(O)CNC(=O)C(CS)Cc1ccccc1 (stereo not drawn) [Thiorphan] | 1.245
C=C(NC(=O)C(=C)NC(=O)c1csc(C2=N[C@@H]3c4csc(n4)[C@H]4NC(=O)c5csc(n5)[C@H]([C@](C)(O)[C@@H](C)O)NC(=O)[C@H]5CSC(=N5)/C(=C/C)NC(=O)[C@H]([C@@H](C)O)NC(=O)c5csc(n5)[C@]3(CC2)NC(=O)[C@H](C)NC(=O)C(=C)NC(=O)[C@H](C)NC(=O)[C@H]([C@@H](C)CC)N[C@@H]2C=Cc3c([C@H](C)O)cc(nc3[C@H]2O)C(=O)O[C@@H]4C)n1)C(N)=O [Thiostrepton] | 13.9158
CCCCCCCCCCCCCCCC[N+](C)(C)CCN(Cc1ccc(OC)cc1)c1ncccn1 [Thonzonium bromide] | 2.814
N[C@@H](Cc1cc(I)c(Oc2cc(I)c(O)c(I)c2)c(I)c1)C(=O)O [Thyroxine (L)] | 0.1955
c1ccc2[nH]c(-c3cscn3)nc2c1 [Tiabendazole] | −0.3752
CCN(CC)CCNC(=O)c1cc(S(C)(=O)=O)ccc1OC [Tiapride hydrochloride] | −1.0178
CC(C(=O)O)c1ccc(C(=O)c2ccccc2)s1 (stereo not drawn) [Tiaprofenic acid] | −0.6271
CC1(C)S[C@@H]2[C@H](NC(=O)[C@H](C(=O)O)c3ccsc3)C(=O)N2[C@H]1C(=O)O [Ticarcillin sodium] | −0.1446

SMILES | Z-score
Clc1ccccc1CN1CCc2sccc2C1 [Ticlopidine hydrochloride] | −1.0702
CCNC1(c2cccs2)CCCCC1=O.Cl (stereo not drawn) [Tiletamine hydrochloride] | 1.2858
CCS(=O)(=O)CCn1c([N+](=O)[O-])cnc1C [Tinidazole] | −0.3977
NC[C@H]1O[C@H](O[C@H]2[C@H](O)[C@@H](O[C@H]3O[C@H](CO)[C@@H](O)[C@H](N)[C@H]3O)[C@H](N)C[C@@H]2N)[C@H](N)C[C@@H]1O [Tobramycin] | 1.694
Cc1cccc(C)c1NC(=O)C(C)N (stereo not drawn) [Tocainide hydrochloride] | 0.6038
Cc1ccc(S(=O)(=O)NC(=O)NN2CCCCCC2)cc1 [Tolazamide] | 1.554
c1ccc(CC2=NCCN2)cc1 [Tolazoline hydrochloride] | 0.3256
CCCCNC(=O)NS(=O)(=O)c1ccc(C)cc1 [Tolbutamide] | −0.8086
Cc1c(Cl)cccc1Nc1ccccc1C(=O)O [Tolfenamic acid] | −0.8256
Cc1ccc(C(=O)c2ccc(CC(=O)O)n2C)cc1 [Tolmetin sodium salt dihydrate] | −1.0425
Cc1cccc(N(C)C(=S)Oc2ccc3ccccc3c2)c1 [Tolnaftate] | 0.2441
C[C@H]1CC[C@]2(NC1)O[C@H]1C[C@H]3[C@@H]4CC[C@H]5C[C@@H](O)CC[C@]5(C)[C@H]4CC[C@]3(C)[C@H]1[C@@H]2C [Tomatidine] | −0.7378
C[C@H]1CC[C@]2(NC1)O[C@H]1C[C@H]3[C@@H]4CC[C@H]5C[C@@H](O[C@@H]6O[C@H](CO)[C@H](O[C@@H]7O[C@H](CO)[C@@H](O)[C@H](O[C@@H]8OC[C@@H](O)[C@H](O)[C@H]8O)[C@H]7O[C@@H]7O[C@H](CO)[C@@H](O)[C@H](O)[C@H]7O)[C@H](O)[C@H]6O)CC[C@]5(C)[C@H]4CC[C@]3(C)[C@H]1[C@@H]2C [Tomatine, reference compound] | −2.0901
Cc1cccc(Nc2ccncc2S(=O)(=O)NC(=O)NC(C)C)c1 [Torsemide] | 0.1541
CCCCNc1c(C(=O)OCC)c(C)nc2c1cnn2CC [Tracazolate hydrochloride] | −1.6368
NC[C@H]1CC[C@H](C(=O)O)CC1 [Tranexamic acid] | 0.05824
N[C@@H]1C[C@H]1c1ccccc1 [Tranylcypromine hydrochloride] | −0.2314
O=c1n(CCCN2CCN(c3cccc(Cl)c3)CC2)nc2ccccn12 [Trazodone hydrochloride] | 0.03974
C(#CCN1CCCC1)CN1CCCC1.Cl.Cl [Tremorine dihydrochloride] | 0.3583
C[C@]12C=CC(=O)C=C1CC[C@H]1[C@@H]3C[C@@H](O)[C@](O)(C(=O)CO)[C@@]3(C)C[C@H](O)[C@@]12F [Triamcinolone] | −1.1722
Nc1nc(N)c2nc(-c3ccccc3)c(N)nc2n1 [Triamterene] | −1.3039
CCOC1O[C@H]([C@@H](COCc2ccccc2)OCc2ccccc2)[C@H](OCc2ccccc2)[C@H]1O (stereo partly drawn) [Tribenoside] | −0.7171
COP(=O)(OC)C(O)C(Cl)(Cl)Cl (stereo not drawn) [Trichlorfon] | 0.2655

SMILES | Z-score
NS(=O)(=O)c1cc2c(cc1Cl)NC(C(Cl)Cl)NS2(=O)=O (stereo not drawn) [Trichlormethiazide] | −1.2081
CC[N+](CC)(CC)CCC(O)(c1ccccc1)C1CCCCC1.[Cl-] (stereo not drawn) [Tridihexethyl chloride] | 0.01977
CN1CCN(CCCN2c3ccccc3Sc3ccc(C(F)(F)F)cc32)CC1 [Trifluoperazine dihydrochloride] | 0.5386
CN(C)CCCN1c2ccccc2Sc2ccc(C(F)(F)F)cc21 [Triflupromazine hydrochloride] | 0.04449
O=c1[nH]c(=O)n([C@H]2C[C@H](O)[C@@H](CO)O2)cc1C(F)(F)F [Trifluridine] | 21.7513
CC(=O)Oc1cc(C(F)(F)F)ccc1C(=O)O [Triflusal] | −1.2041
C[n+]1cccc(C(=O)[O-])c1 [Trigonelline] | −1.518
Cl.OC(CCN1CCCCC1)(c1ccccc1)C1CCCCC1 (stereo not drawn) [Trihexyphenidyl-D,L Hydrochloride] | 1.258
COc1ccc(CN2CCNCC2)c(OC)c1OC [Trimetazidine dihydrochloride] | 0.9654
CN1C(=O)OC(C)(C)C1=O [Trimethadione] | −0.8958
COc1cc(C(=O)NCc2ccc(OCCN(C)C)cc2)cc(OC)c1OC [Trimethobenzamide hydrochloride] | 1.06
COc1cc(Cc2cnc(N)nc2N)cc(OC)c1OC [Trimethoprim] | −0.9568
COc1cc2c(c(OC)c1OC)-c1ccc(O)c(=O)cc1C(N)CC2 (stereo not drawn) [Trimethylcolchicinic acid] | 0.4127
Cc1cc2cc3c(C)cc(=O)oc3c(C)c2o1 [Trioxsalen] | 1.359
Cc1ccc(/C(=C\CN2CCCC2)c2ccccn2)cc1 [Triprolidine hydrochloride] | −1.0644
CO[C@H]1C[C@H](O[C@H]2[C@H](C)[C@@H](O[C@@H]3O[C@H](C)C[C@H](N(C)C)[C@H]3OC(C)=O)[C@@H](C)C[C@@]3(CO3)C(=O)[C@H](C)[C@@H](OC(C)=O)[C@@H](C)[C@@H](C)OC(=O)[C@@H]2C)O[C@@H](C)[C@@H]1OC(C)=O [Troleandomycin] | −0.5429
Cc1c(C)c2c(c(C)c1O)CCC(C)(C(=O)O)O2 (stereo not drawn) [Trolox] | −1.1986
CN1[C@@H]2CC[C@H]1C[C@@H](O)C2 [Tropine] | −0.2952
COc1cc2c3cc1Oc1cc(ccc1O)C[C@@H]1c4c(cc(OC)c(O)c4Oc4ccc(cc4)C[C@@H]3N(C)CC2)CC[N+]1(C)C.Cl.O.O.O.O.O.[Cl-] [Tubocurarine chloride pentahydrate (+)] | 0.8961
CO[C@@H]1C=C2CCN(C)[C@@H]2C2c3cc4c(cc3C(=O)OC21)OCO4.O=[N+]([O-])O (stereo partly drawn) [Ungerine nitrate] | −1.1174
COc1ccccc1N1CCN(CCCNc2cc(=O)n(C)c(=O)n2C)CC1 [Urapidil hydrochloride] | −1.2828
C[C@H](CCC(=O)O)[C@H]1CC[C@H]2[C@@H]3[C@@H](O)C[C@@H]4C[C@H](O)CC[C@]4(C)[C@H]3CC[C@]12C [Urosiol] | 0.02187
C[C@H]1[C@H](C)CC[C@]2(C(=O)O)CC[C@]3(C)C(=CC[C@@H]4[C@@]5(C)CC[C@H](O)C(C)(C)[C@@H]5CC[C@]43C)[C@H]12 [Ursolic acid] | −0.1541

Source: patent publication US9393221B2, “Methods and compounds for reducing intracellular lipid storage” (THE GENERAL HOSPITAL CORPORATION, priority 2011, dated 2016)
